Six compounds from ChEMBL document CHEMBL1147919, “Syntheses and binding affinities of 6-nitroquipazine analogues for serotonin transporter. Part 5: 2'-Substituted 6-nitroquipazines” (Bioorg Med Chem, 2007) can be followed below.

Each structure is given as a SMILES string.

One may read the Ki as a dissociation constant, usually derived from enzyme kinetics or from competition with a known ligand. A lower Ki goes with higher affinity.

For this experiment, the target named is Sodium-dependent serotonin transporter (Rattus norvegicus, UniProt P31652). In words: Displacement of [3H]citalopram from Sprague-Dawley rat SERT. Background: Loss of bound radioactivity is the signal in a displacement assay; it reports binding, not function.
Sequence of Sodium-dependent serotonin transporter (P31652 whole entry): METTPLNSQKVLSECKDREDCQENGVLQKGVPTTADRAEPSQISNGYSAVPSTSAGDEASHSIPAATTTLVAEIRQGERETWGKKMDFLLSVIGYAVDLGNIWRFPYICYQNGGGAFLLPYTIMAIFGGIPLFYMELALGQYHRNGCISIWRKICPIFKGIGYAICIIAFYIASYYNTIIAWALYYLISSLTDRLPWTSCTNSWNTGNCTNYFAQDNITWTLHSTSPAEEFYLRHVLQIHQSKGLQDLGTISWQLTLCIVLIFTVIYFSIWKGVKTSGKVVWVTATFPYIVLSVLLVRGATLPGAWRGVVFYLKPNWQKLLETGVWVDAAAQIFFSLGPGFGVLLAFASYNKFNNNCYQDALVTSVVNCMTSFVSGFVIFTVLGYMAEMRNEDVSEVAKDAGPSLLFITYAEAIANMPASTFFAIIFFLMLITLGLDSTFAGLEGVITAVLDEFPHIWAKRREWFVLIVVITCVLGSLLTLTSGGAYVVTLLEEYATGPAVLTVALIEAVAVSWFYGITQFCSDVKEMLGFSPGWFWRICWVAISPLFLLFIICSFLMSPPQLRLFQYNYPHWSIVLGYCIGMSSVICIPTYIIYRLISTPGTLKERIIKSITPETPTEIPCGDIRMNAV
For `COCC1CNCCN1c1ccc2cc([N+](=O)[O-])ccc2n1` (stereo unspecified), the Ki was 0.68 nM.
`CCCOCC1CNCCN1c1ccc2cc([N+](=O)[O-])ccc2n1` (stereo unspecified): the inhibition constant (Ki) amounted to 5.67 nM.
Take `CCOCC1CNCCN1c1ccc2cc([N+](=O)[O-])ccc2n1` (stereo unspecified): the affinity corresponds to a Ki of 0.43 nM.
For `CCCCOCC1CNCCN1c1ccc2cc([N+](=O)[O-])ccc2n1` (stereo unspecified), the Ki stood at 15.4 nM.
Regarding `O=[N+]([O-])c1ccc2nc(N3CCNCC3CO)ccc2c1` (stereo unspecified), the affinity, expressed as Ki, was 0.43 nM.
On to `O=[N+]([O-])c1ccc2nc(N3CCNCC3)ccc2c1` [6-NITROQUIPAZINE], for which affinity was put at a Ki of 0.24 nM. Compared with the last compound, the Ki is about 1.8-fold lower.
